Where two headings read alike, the source gives them in different places. Marks after values point to notes of the source that are not given here.
How the values were obtained:
[1] = Pharmacokinetic testing in rats; type: in vivo, male SD rats; conditions: rat; for C0: read-out: Starting concentration C0; for Cmax: read-out: Peak concentration Cmax; for AUC(0-t): read-out: Area under the curve AUC0-last
Protocol: The objective was to study the pharmacokinetic behavior of the compound of the present disclosure in rats and evaluate the pharmacokinetic characteristics, using male SD rats aged 7 to 9 weeks as test animals. The drug concentrations in plasma at different time points after a single intravenous injection (IV) and oral administration (P0) of the compound were determined using LC/MS/MS.
The pharmacokinetic characteristics of the compound in rodents following intravenous injection and oral administration were tested using a standard protocol. Test animals were fasted for 10 to 14 hours before administration and allowed to feed 4 hours post-administration. The compound was prepared into a clear solution with the appropriate solvent for both IV (intravenous injection) and PO (oral gavage) administration. The solvent was […]+10% solutol+80% (10% HP-β-CD aqueous solution). Whole blood samples were collected within 24 hours, centrifuged at 6000 g for 3 minutes, and the supernatant was separated to obtain plasma samples. Protein precipitation was performed by adding four times the volume of acetonitrile solution containing internal standard to the plasma samples. After centrifugation, the supernatant was added with an equal volume of water and then centrifuged before being subjected to LC-MS/MS analysis for quantifying plasma drug concentration. Pharmacokinetic parameters such as peak concentration, time to peak concentration, clearance, half-life, area under the drug-time curve, and bioavailability were calculated.

[2] = tested on: IL-23-induced psoriasis-like skin lesions; assay: Mouse psoriasis-like model induced by IL-23; type: in vivo, C57BL/6 mice; set-up: Total score for epidermal hyperplasia of ear pinnae / AUC of total score for epidermal hyperplasia of ear pinnae / Pathological score: Degree of keratinization / Pathological score: Epidermal thickness / Pathological score: Dermal thickness / Pathological score: Inflammatory cell infiltration / Comprehensive pathological score: scale not given here; conditions: for AUC of total score for epidermal hyperplasia of ear pinnae: Day 0 to Day 8; for Comprehensive pathological score / Pathological score: Degree of keratinization / Pathological score: Dermal thickness / Pathological score: Epidermal thickness / Pathological score: Inflammatory cell infiltration: right ear H&E sections
Source text: The purpose of this experiment was to evaluate the prophylactic and therapeutic effect of the test substance on IL-23-induced psoriasis-like skin lesions in mice by intradermal injection of IL-23 into the ear pinnae in a psoriasis-like skin lesion model.
Female C57BL/6 mice of qualified body weight were randomly divided into groups, with 6 mice per group. The grouping and administration information was as follows. The groups were: blank control group, model group, positive control Ustekinumab (5 mg/kg) group, WX-011A hydrochloride (30, 50 mg/kg) group, and WX-020 sulfate (30, 50 mg/kg) group. Except for the blank control group, the animals in the other groups received an intradermal injection of IL-23 (3 μg/10 μL/mouse/day, QD) in the right ear for 8 consecutive days (Day 0 to Day 7). The blank control group received an intradermal injection of an equal volume of saline solution (10 μL/mouse/day, QD) in the right ear for 8 consecutive days (Day 0 to Day 7). Concurrent with model induction, the solvent or test drug was orally administered twice a day (Bid) at 6-hour intervals for 8 consecutive days (Day 0 to Day 7). The positive control was subcutaneously injected on Day 0 and Day 3 (a total of 2 doses). During the administration period, the body weight of the animals was monitored every two days. On Day 0, Day 2, Day 4, Day 6 (all before IL-23 injection), and Day 8, the thickness of the right ear of the mice was measured, and the appearance of the ear pinnae was observed and scored.
The compounds were all prepared into a clear solution with 10% DMSO+[…] as a solvent for PO (oral gavage) administration. Administration volume parameters: 10 mL/kg based on the body weight of the mice.
After grouping, IL-23 (3 μg/10 μL/mouse/day, QD) was injected intradermally into the right ears of the mice for 8 consecutive days (Day 0 to Day 7). Measurements of the thickness of the right ear and observations and scoring of the appearance of the ear pinnae were performed on Day 0, Day 2, Day 4, Day 6 (all before IL-23 injection), and Day 8. At the end of the experiment (Day 8), the left ear tissues of the mice from groups G4 to G10 (3 animals per group at each time point) were collected. The right ear, which had been modeled, was excised, an 8 mm ear punch was taken along the edge of the pinna, and its weight was measured. The excised right ear tissues were fixed in formalin for histopathological examination (H&E staining).
Concurrent with model induction, corresponding drug treatment was given for administration. Except for the positive control drug (Ustekinumab), which was subcutaneously injected on Day 0 and Day 3 (once a day), control and test drugs for each dose group were orally administered by gavage twice a day at 6-hour intervals for 8 consecutive days (Day 0 to Day 7).
The pathological scoring of mouse ear tissue sections was conducted according to the criteria in Table 33.
The experimental data are represented as Mean±SD; statistical analysis was performed using IBM SPSS Statistics 21, with p<0.05 considered to indicate a statistically significant difference between the two groups. The effect of the test substance on the thickness of mouse ears in the IL-23 induced mouse pinna epidermal hyperplasia model is shown in Table 34. The effect of the test substance on the total score and AUC for […] induced mouse pinna epidermal hyperplasia is shown in Table 35.

Structure (SMILES): CNC(=O)c1nnc(NC(=O)C2CC2)cc1Nc1cccc(-c2ncc(S(=N)(=O)C(C)C)cn2)c1OC.Cl (single isomer, unassigned) [Hydrochloride of WX-011A]
- Apparent clearance Cl ([1]; IV 1 mg/kg): 16.8 mL/min/kg
- Apparent volume of distribution Vd ([1]; IV 1 mg/kg): 0.5 L/kg
- Area under the curve AUC0-last ([1]; IV 1 mg/kg): 2.075 µM·h
- Half-life T1/2 ([1]; IV 1 mg/kg): 36 min
- C0 ([1]; IV 1 mg/kg): 4.54 µM
- Area under the curve AUC0-last ([1]; PO 10 mg/kg): 8.202 µM·h
- Bioavailability F % ([1]; PO 10 mg/kg): 41%
- Time to peak concentration Tmax ([1]; PO 10 mg/kg): 30 min
- Cmax ([1]; PO 10 mg/kg): 4.39 µM
- Ear thickness (mm) ([2]; 30 mg/kg PO BID, Day 0): 0.199 mm
- Total score for epidermal hyperplasia of ear pinnae ([2]; 30 mg/kg PO BID, Day 0): 0.00
- AUC of total score for epidermal hyperplasia of ear pinnae ([2]; 30 mg/kg PO BID): 3.17**
- Ear thickness (mm) ([2]; 30 mg/kg PO BID, Day 2): 0.274* mm
- Total score for epidermal hyperplasia of ear pinnae ([2]; 30 mg/kg PO BID, Day 2): 0.00
- Ear thickness (mm) ([2]; 30 mg/kg PO BID, Day 4): 0.299* mm
- Total score for epidermal hyperplasia of ear pinnae ([2]; 30 mg/kg PO BID, Day 4): 0.33*
- Ear thickness (mm) ([2]; 30 mg/kg PO BID, Day 6): 0.297** mm
- Total score for epidermal hyperplasia of ear pinnae ([2]; 30 mg/kg PO BID, Day 6): 0.67**
- Ear thickness (mm) ([2]; 30 mg/kg PO BID, Day 8): 0.301** mm
- Total score for epidermal hyperplasia of ear pinnae ([2]; 30 mg/kg PO BID, Day 8): 1.17**
- Comprehensive pathological score ([2]; 30 mg/kg PO BID): 1.17**
- Pathological score: Degree of keratinization ([2]; 30 mg/kg PO BID): 0.17**
- Pathological score: Dermal thickness ([2]; 30 mg/kg PO BID): 0.17
- Pathological score: Epidermal thickness ([2]; 30 mg/kg PO BID): 0.67**
- Pathological score: Inflammatory cell infiltration ([2]; 30 mg/kg PO BID): 0.17**
- Ear thickness (mm) ([2]; 50 mg/kg PO BID, Day 0): 0.197 mm
- Total score for epidermal hyperplasia of ear pinnae ([2]; 50 mg/kg PO BID, Day 0): 0.00
- AUC of total score for epidermal hyperplasia of ear pinnae ([2]; 50 mg/kg PO BID): 2.67**
- Ear thickness (mm) ([2]; 50 mg/kg PO BID, Day 2): 0.279^p=0.081 mm
- Total score for epidermal hyperplasia of ear pinnae ([2]; 50 mg/kg PO BID, Day 2): 0.00
- Ear thickness (mm) ([2]; 50 mg/kg PO BID, Day 4): 0.291 * mm
- Total score for epidermal hyperplasia of ear pinnae ([2]; 50 mg/kg PO BID, Day 4): 0.17**
- Ear thickness (mm) ([2]; 50 mg/kg PO BID, Day 6): 0.299** mm
- Total score for epidermal hyperplasia of ear pinnae ([2]; 50 mg/kg PO BID, Day 6): 0.67**
- Ear thickness (mm) ([2]; 50 mg/kg PO BID, Day 8): 0.300** mm
- Total score for epidermal hyperplasia of ear pinnae ([2]; 50 mg/kg PO BID, Day 8): 1.00*
- Comprehensive pathological score ([2]; 50 mg/kg PO BID): 1.83**
- Pathological score: Degree of keratinization ([2]; 50 mg/kg PO BID): 0.33**
- Pathological score: Dermal thickness ([2]; 50 mg/kg PO BID): 0.50
- Pathological score: Epidermal thickness ([2]; 50 mg/kg PO BID): 0.50**
- Pathological score: Inflammatory cell infiltration ([2]; 50 mg/kg PO BID): 0.50**

Structure (SMILES): CNC(=O)c1cnc(NC(=O)C2CC2)cc1Nc1cccc(-c2ccc(S(=O)(=O)C(C)C)cn2)c1OC.O=S(=O)(O)O [Sulfate of WX-020]
- Ear thickness (mm) ([2]; 30 mg/kg PO BID, Day 0): 0.197 mm
- Total score for epidermal hyperplasia of ear pinnae ([2]; 30 mg/kg PO BID, Day 0): 0.00
- AUC of total score for epidermal hyperplasia of ear pinnae ([2]; 30 mg/kg PO BID): 7.67
- Ear thickness (mm) ([2]; 30 mg/kg PO BID, Day 2): 0.283 mm
- Total score for epidermal hyperplasia of ear pinnae ([2]; 30 mg/kg PO BID, Day 2): 0.00
- Ear thickness (mm) ([2]; 30 mg/kg PO BID, Day 4): 0.311 mm
- Total score for epidermal hyperplasia of ear pinnae ([2]; 30 mg/kg PO BID, Day 4): 0.50*
- Ear thickness (mm) ([2]; 30 mg/kg PO BID, Day 6): 0.351** mm
- Total score for epidermal hyperplasia of ear pinnae ([2]; 30 mg/kg PO BID, Day 6): 2.5
- Ear thickness (mm) ([2]; 30 mg/kg PO BID, Day 8): 0.343^p=0.082 mm
- Total score for epidermal hyperplasia of ear pinnae ([2]; 30 mg/kg PO BID, Day 8): 1.67*
- Comprehensive pathological score ([2]; 30 mg/kg PO BID): 4.17**
- Pathological score: Degree of keratinization ([2]; 30 mg/kg PO BID): 0.83**
- Pathological score: Dermal thickness ([2]; 30 mg/kg PO BID): 1.33
- Pathological score: Epidermal thickness ([2]; 30 mg/kg PO BID): 0.83**
- Pathological score: Inflammatory cell infiltration ([2]; 30 mg/kg PO BID): 1.17**
- Ear thickness (mm) ([2]; 50 mg/kg PO BID, Day 0): 0.195 mm
- Total score for epidermal hyperplasia of ear pinnae ([2]; 50 mg/kg PO BID, Day 0): 0.00
- AUC of total score for epidermal hyperplasia of ear pinnae ([2]; 50 mg/kg PO BID): 5.00*
- Ear thickness (mm) ([2]; 50 mg/kg PO BID, Day 2): 0.289 mm
- Total score for epidermal hyperplasia of ear pinnae ([2]; 50 mg/kg PO BID, Day 2): 0.00
- Ear thickness (mm) ([2]; 50 mg/kg PO BID, Day 4): 0.303* mm
- Total score for epidermal hyperplasia of ear pinnae ([2]; 50 mg/kg PO BID, Day 4): 0.50*
- Ear thickness (mm) ([2]; 50 mg/kg PO BID, Day 6): 0.311** mm
- Total score for epidermal hyperplasia of ear pinnae ([2]; 50 mg/kg PO BID, Day 6): 1.33*
- Ear thickness (mm) ([2]; 50 mg/kg PO BID, Day 8): 0.317** mm
- Total score for epidermal hyperplasia of ear pinnae ([2]; 50 mg/kg PO BID, Day 8): 1.33**
- Comprehensive pathological score ([2]; 50 mg/kg PO BID): 2.17**
- Pathological score: Degree of keratinization ([2]; 50 mg/kg PO BID): 0.33**
- Pathological score: Dermal thickness ([2]; 50 mg/kg PO BID): 0.50
- Pathological score: Epidermal thickness ([2]; 50 mg/kg PO BID): 0.67**
- Pathological score: Inflammatory cell infiltration ([2]; 50 mg/kg PO BID): 0.67**

Structure (SMILES): CNC(=O)c1cnc(NC(=O)C2CC2)cc1Nc1cccc(-c2ccc(S(=O)(=O)C(C)C)cn2)c1OC [WX-020]
- Vd ([1]; male, SD, plasma, IV 3 mg/kg, read-out: Apparent volume of distribution Vd): 0.9 L/kg
- AUC(0-t) ([1]; male, SD, plasma, IV 3 mg/kg): 2.61 µM·h
- half-life ([1]; male, SD, plasma, IV 3 mg/kg, read-out: Half-life T1/2 (converted)): 54 min
- C0 ([1]; male, SD, plasma, IV 3 mg/kg): 3.03 µM
- AUC(0-t) ([1]; male, SD, plasma, PO 10 mg/kg): 9.76 µM·h
- bioavailability ([1]; male, SD, plasma, PO 10 mg/kg, read-out: Bioavailability F%): 39%
- Cmax ([1]; male, SD, plasma, PO 10 mg/kg): 3.38 µM
- Tmax ([1]; male, SD, plasma, PO 10 mg/kg, read-out: Time to peak concentration Tmax): 48 min
- Apparent clearance Cl ([1]; IV 3 mg/kg): 13.1 mL/min/kg
